According to US5965372A, “Genetic sequences encoding glucocorticoid dehydrogenases and uses thereof” (Baker Medical Research Institute, priority 1996, dated 1999):

Legend:
[1] = biological target: T1, 11βHSD2 (Homo sapiens, UniProt P80365); assay: Directionality and end product inhibition in intact pHSD2 transfected CHOP cells; assay type: cell-based; conditions: monolayer cultures, 1.5 hours at 37° C., 1-2 nM labelled substrate, TLC
T1 construct: homogenates or intact cells
T1 sequence (P80365 1-405 V148L): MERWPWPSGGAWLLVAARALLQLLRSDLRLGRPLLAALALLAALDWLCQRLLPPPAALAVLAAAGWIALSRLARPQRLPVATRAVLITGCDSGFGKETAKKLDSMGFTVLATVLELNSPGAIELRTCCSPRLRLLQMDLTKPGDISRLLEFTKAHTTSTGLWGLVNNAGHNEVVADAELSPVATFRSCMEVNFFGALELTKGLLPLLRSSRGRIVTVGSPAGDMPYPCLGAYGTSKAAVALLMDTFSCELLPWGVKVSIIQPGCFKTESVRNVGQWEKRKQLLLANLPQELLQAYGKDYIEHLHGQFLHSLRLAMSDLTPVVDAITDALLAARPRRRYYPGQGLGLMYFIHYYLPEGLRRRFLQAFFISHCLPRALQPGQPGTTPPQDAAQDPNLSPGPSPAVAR
Protocol: To determine directionality and extent of end production inhibition of the enzyme encoded by pHSD2, monolayer cultures of transfected CHOP cells were incubated for 1.5 hours at 37° C. with 1-2 nM labelled substrates plus 10 nM corresponding unlabelled 11-dehydro metabolite (FIG. 2b). The culture medium was then removed, extracted and assayed by TLC for the presence of the 11-dehydro metabolite.
Dehydrogenase activity was also estimated in the presence of an excess of the respective 11-dehydro metabolite (FIG. 2b, III).

[2] = biological target: T1, 11βHSD2; assay: Km determination in homogenates of pHSD2 transfected CHOP cells; assay type: biochemical; conditions: double reciprocal plot, 37° C., mean±SD, n=3
Source text: The efficiency of the dehydrogenase may be further increased by mechanisms such as intracellular compartmentalisation of the enzyme.

[3] = biological target: T1, 11βHSD2; assay: Cofactor specificity of glucocorticoid metabolism in homogenates of pHSD2 transfected CHOP cells; assay type: biochemical; conditions: 1 mM NAD+ or 1 mM NADP+, 37° C. for 40 minutes, TLC
Protocol: CHOP cells were transfected with plasmid pHSD2, which contains an insert encoding 11βHSD2. After 60 hours incubation in 85 mm plates, cellular homogenates were prepared and assayed for their ability to metabolise glucocorticoid substrates in the presence of 1 mM NAD+, or 1 mM NADP+. Confluent cells were homogenised in 1 ml of homogenisation buffer (0.25 M sucrose, 10 MM phosphate, pH 7). Reaction mixtures (500 μl) contained either 40 μl of homogenate plus [^3 H]corticosterone, or 80 μl of homogenate plus [^3 H]cortisol, or 120 μl of homogenate plus [^3 H]dexamethasone, in homogenisation buffer. All reactions contained 1-2 nM tritiated glucocorticoid substrate plus 10 nM unlabelled glucocorticoid substrate. Reaction mixtures were incubated at 37° C. for 40 minutes and steroid metabolites were assayed by thin layer chromatography.

C[C@]12CC(=O)[C@H]3[C@@H](CCC4=CC(=O)CC[C@@]43C)[C@@H]1CC[C@@H]2C(=O)CO [11-dehydro corticosterone]
metabolite formation by intact transfected CHOP cells [1]: no metabolite formed

C[C@]12C[C@H](O)[C@H]3[C@@H](CCC4=CC(=O)CC[C@@]43C)[C@@H]1CC[C@@H]2C(=O)CO [corticosterone]
metabolite formation by intact transfected CHOP cells [1]: converted
Km [2]: 5.1 ± 1.2 nM
glucocorticoid metabolism to 11-dehydro metabolite, cofactor dependence [3]: only showed significant glucocorticoid metabolism when NAD+, but not NADP+, was included as a cofactor

C[C@]12CCC(=O)C=C1CC[C@@H]1[C@@H]2[C@@H](O)C[C@@]2(C)[C@H]1CC[C@]2(O)C(=O)CO [cortisol]
metabolite formation by intact transfected CHOP cells [1]: converted
glucocorticoid metabolism to 11-dehydro metabolite, cofactor dependence [3]: only showed significant glucocorticoid metabolism when NAD+, but not NADP+, was included as a cofactor

C[C@]12CCC(=O)C=C1CC[C@@H]1[C@@H]2C(=O)C[C@@]2(C)[C@H]1CC[C@]2(O)C(=O)CO [cortisone]
metabolite formation by intact transfected CHOP cells [1]: no metabolite formed

C[C@@H]1C[C@H]2[C@@H]3CCC4=CC(=O)C=C[C@]4(C)[C@@]3(F)[C@@H](O)C[C@]2(C)[C@@]1(O)C(=O)CO [dexamethasone]
glucocorticoid metabolism to 11-dehydro metabolite, cofactor dependence [3]: only showed significant glucocorticoid metabolism when NAD+, but not NADP+, was included as a cofactor
